Measured values as given in patent US20050090652A1, “Highly homogenous serum albumin as chiral selector” (priority 2002, published 2005).
Where two headings read alike, the source gives them in different places.

Key:
[1] = target: T1, recombinant human serum albumin (rHA) immobilised on silica (Homo sapiens, UniProt P02768); conditions: pH 7.5
albumin = albumin (Homo sapiens, UniProt P02768); conditions: binding to albumin; Peters et al.; Kragh-Hansen 1990; cited from earlier work
[2] = target: T1, recombinant human serum albumin (rHA) immobilised on silica; assay: Enantioselective HPLC analysis by the rHA-based column; conditions: 1-propanol/phosphate buffer (pH 7.5) 15/85 (v/v), 0.6 ml/min flow rate

Sequence of albumin (P02768 25-609, species assumed): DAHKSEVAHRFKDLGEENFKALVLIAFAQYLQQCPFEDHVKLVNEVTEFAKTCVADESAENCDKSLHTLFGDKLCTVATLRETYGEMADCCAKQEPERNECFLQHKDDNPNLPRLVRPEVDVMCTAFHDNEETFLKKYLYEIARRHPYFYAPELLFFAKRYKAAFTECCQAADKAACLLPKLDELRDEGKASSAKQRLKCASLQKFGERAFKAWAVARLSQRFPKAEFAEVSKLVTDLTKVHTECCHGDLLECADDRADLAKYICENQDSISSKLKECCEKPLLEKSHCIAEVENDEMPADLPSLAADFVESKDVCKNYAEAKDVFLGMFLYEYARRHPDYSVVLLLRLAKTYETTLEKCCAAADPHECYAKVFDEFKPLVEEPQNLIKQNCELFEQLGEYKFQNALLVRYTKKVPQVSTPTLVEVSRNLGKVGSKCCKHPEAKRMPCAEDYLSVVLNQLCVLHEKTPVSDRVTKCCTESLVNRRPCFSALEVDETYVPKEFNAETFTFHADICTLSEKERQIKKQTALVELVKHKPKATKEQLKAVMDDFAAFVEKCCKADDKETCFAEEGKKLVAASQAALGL
T1 sequence (P02768 25-609): as the sequence (P02768 25-609, species assumed) above

Row | Molecule | affinity relative to the other enantiomer (antipode) (albumin) [fold] | also measured
1 | CC(C)CC(NC(=O)c1ccccc1)C(=O)O (racemic) [N-benzoyl-DL-leucine] | – | enantioselectivity (α) [1]: 2.8
2 | O=C(O)CCC(=O)O[C@@H]1N=C(c2ccccc2)c2cc(Cl)ccc2NC1=O [(S)-oxazepam-hemisuccinate] | 35 | –
3 | N[C@@H](Cc1c[nH]c2ccccc12)C(=O)O [L-tryptophan] | 100 | –
4 | rac-lorazepam hemisuccinate | – | enantioselectivity (α) [2]: 5.3
